Experimental data as given in patent US7772241B2, “Variolin derivatives and their use as antitumor agents” (Pharma Mar S.A., priority 2001, dated 2010).
Like-named read-outs stand apart in the source and are kept apart here.

Assays:
[1] = system: IGROV-1; experiment: Inhibition of cells growth by colorimetric (SRB) assay, IGROV-1
Method in brief: (§1)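 Read-out is sulforhodamine B protein stain (OD 490 nm) after cold TCA fixation, following 48 h continuous exposure to samples spanning 10 to 10^−8 μg/ml.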

[2] = system: LNCaP; experiment: Inhibition of cells growth by colorimetric (SRB) assay, LNCaP
Method in brief: as §1

[3] = Inhibition of cells growth by colorimetric (SRB) assay, HMEC1; conditions: human, HMEC1 cells, LC50 H-MEC-1, SRB assay, 48 hours exposure
[4] = system: HMEC1; experiment: as above; conditions: for TGI H-MEC-1: in M (unit assumed)
[5] = system: IGROV-ET; experiment: Inhibition of cells growth by colorimetric (SRB) assay, IGROV-ET; conditions: for CC50: read-out: LC50 IGROV-ET, SRB assay, 48 hours exposure
Method in brief: as §1

[6] = system: HT-29; experiment: Inhibition of cells growth by colorimetric (SRB) assay, HT-29; conditions: for GI50 / CC50: Homo sapiens, HT-29, 48 h; for GI50: read-out: GI50 HT-29, SRB assay, 48 hours exposure; for CC50: read-out: LC50 HT-29, SRB assay, 48 hours exposure; for TGI HT-29: SRB assay, 48 hours exposure
Method in brief: as §1

[7] = system: DU-145; experiment: Inhibition of cells growth by colorimetric (SRB) assay, DU-145; conditions: for GI50: read-out: GI50 DU-145, SRB assay, 48 hours exposure
Method in brief: as §1

[8] = system: K-562; experiment: Inhibition of cells growth by colorimetric (SRB) assay, K-562
Method in brief: as §1

[9] = system: LoVo; experiment: Inhibition of cells growth by colorimetric (SRB) assay, LoVo; conditions: for GI50 / CC50: Homo sapiens, LoVo, 48 h; for GI50: read-out: GI50 LOVO, SRB assay, 48 hours exposure; for CC50: read-out: LC50 LOVO, SRB assay, 48 hours exposure; for TGI LOVO: SRB assay, 48 hours exposure
Method in brief: as §1

[10] = system: LoVo-Dox; experiment: Inhibition of cells growth by colorimetric (SRB) assay, LoVo-Dox; conditions: for GI50 / CC50: Homo sapiens, 48 h; for GI50: read-out: GI50 LOVO-DOX, SRB assay, 48 hours exposure; for CC50: read-out: LC50 LOVO-DOX, SRB assay, 48 hours exposure; for TGI LOVO-DOX: SRB assay, 48 hours exposure
Method in brief: as §1

[11] = system: PANC-1; experiment: Inhibition of cells growth by colorimetric (SRB) assay, PANC-1; conditions: for GI50 / CC50: Homo sapiens, PANC-1, 48 h; for GI50: read-out: GI50 PANC-1, SRB assay, 48 hours exposure; for CC50: read-out: LC50 PANC-1, SRB assay, 48 hours exposure; for TGI PANC-1: SRB assay, 48 hours exposure
Method in brief: as §1

[12] = system: SK-MEL-28; experiment: Inhibition of cells growth by colorimetric (SRB) assay, SK-MEL-28; conditions: for GI50 / CC50: Homo sapiens, SK-MEL-28, 48 h; for GI50: read-out: GI50 MEL-28, SRB assay, 48 hours exposure; for CC50: read-out: LC50 MEL-28, SRB assay, 48 hours exposure; for TGI MEL-28: SRB assay, 48 hours exposure
Method in brief: as §1

[13] = system: SK-BR-3; experiment: Inhibition of cells growth by colorimetric (SRB) assay, SK-BR-3; conditions: for GI50: read-out: GI50 SK-BR-3, SRB assay, 48 hours exposure
Method in brief: as §1

[14] = system: SK-OV-3; experiment: Inhibition of cells growth by colorimetric (SRB) assay, SK-OV-3; conditions: for CC50: read-out: LC50 SKOV-3, SRB assay, 48 hours exposure
Method in brief: as §1

[15] = system: A-549; experiment: Inhibition of cells growth by colorimetric (SRB) assay, A-549
Method in brief: as §1

[16] = Homo sapiens, IGROV-1, 48 h, read-out: GI50 IGROV, SRB assay, 48 hours exposure
[17] = Homo sapiens, IGROV-1, 48 h, read-out: LC50 IGROV, SRB assay, 48 hours exposure
[18] = Homo sapiens, HMEC-1, 48 h, read-out: GI50 H-MEC-1, SRB assay, 48 hours exposure
[19] = Homo sapiens, SK-BR-3, 48 h, read-out: LC50 SK-BR-3, SRB assay, 48 hours exposure
[20] = Homo sapiens, A549, 48 h, read-out: GI50 A-549, SRB assay, 48 hours exposure
[21] = Homo sapiens, A549, 48 h, read-out: LC50 A-549, SRB assay, 48 hours exposure
[22] = read-out: GI50 LN-caP, SRB assay, 48 hours exposure
[23] = read-out: LC50 LN-caP, SRB assay, 48 hours exposure
[24] = read-out: GI50 IGROV-ET, SRB assay, 48 hours exposure
[25] = read-out: LC50 DU-145, SRB assay, 48 hours exposure
[26] = read-out: GI50 K-562, SRB assay, 48 hours exposure
[27] = read-out: LC50 K-562, SRB assay, 48 hours exposure
[28] = read-out: GI50 SKOV-3, SRB assay, 48 hours exposure

Nc1nccc2c(-c3cccs3)c3cccnc3n12 [Compound 65]
GI50 [1, 16]: ≥ 37.5 µM
CC50 [1, 17]: ≥ 37.5 µM
TGI IGROV ([1]; SRB assay, 48 hours exposure): 3.75E−05
GI50 ([2]; Homo sapiens, LNCaP, 48 h, read-out: GI50 LN-caP, SRB assay, 48 hours exposure): 17.1 µM
CC50 ([2]; Homo sapiens, LNCaP, 48 h, read-out: LC50 LN-caP, SRB assay, 48 hours exposure): ≥ 37.5 µM
TGI LN-caP ([2]; SRB assay, 48 hours exposure): 3.75E−05
CC50 at 48 h [3]: ≥ 37.5 µM
GI50 [4, 18]: 11.8 µM
TGI H-MEC-1 ([4]; SRB assay, 48 hours exposure): 3.75E−05
GI50 ([5]; Homo sapiens, 48 h, read-out: GI50 IGROV-ET, SRB assay, 48 hours exposure): ≥ 37.5 µM
CC50 ([5]; Homo sapiens, 48 h): ≥ 37.5 µM
TGI IGROV-ET ([5]; SRB assay, 48 hours exposure): 3.75E−05
GI50 [6]: ≥ 37.5 µM
CC50 [6]: ≥ 37.5 µM
TGI HT-29 [6]: 3.75E−05
GI50 ([7]; Homo sapiens, DU-145, 48 h): ≥ 37.5 µM
CC50 ([7]; Homo sapiens, DU-145, 48 h, read-out: LC50 DU-145, SRB assay, 48 hours exposure): ≥ 37.5 µM
TGI DU-145 ([7]; SRB assay, 48 hours exposure): 3.75E−05
GI50 ([8]; Homo sapiens, K562, 48 h, read-out: GI50 K-562, SRB assay, 48 hours exposure): ≥ 37.5 µM
CC50 ([8]; Homo sapiens, K562, 48 h, read-out: LC50 K-562, SRB assay, 48 hours exposure): ≥ 37.5 µM
TGI K-562 ([8]; SRB assay, 48 hours exposure): 3.75E−05
GI50 [9]: ≥ 37.5 µM
CC50 [9]: ≥ 37.5 µM
TGI LOVO [9]: 3.75E−05
GI50 [10]: ≥ 37.5 µM
CC50 [10]: ≥ 37.5 µM
TGI LOVO-DOX [10]: 3.75E−05
GI50 [11]: ≥ 37.5 µM
CC50 [11]: ≥ 37.5 µM
TGI PANC-1 [11]: 3.75E−05
GI50 [12]: ≥ 37.5 µM
CC50 [12]: ≥ 37.5 µM
TGI MEL-28 [12]: 3.75E−05
GI50 ([13]; Homo sapiens, SK-BR-3, 48 h): 1.46 µM
CC50 [13, 19]: ≥ 37.5 µM
TGI SK-BR-3 ([13]; SRB assay, 48 hours exposure): 3.75E−05
GI50 ([14]; Homo sapiens, SK-OV-3, 48 h, read-out: GI50 SKOV-3, SRB assay, 48 hours exposure): ≥ 37.5 µM
CC50 ([14]; Homo sapiens, SK-OV-3, 48 h): ≥ 37.5 µM
TGI SKOV-3 ([14]; SRB assay, 48 hours exposure): 3.75E−05
GI50 [15, 20]: 26.4 µM
CC50 [15, 21]: ≥ 37.5 µM
TGI A-549 ([15]; SRB assay, 48 hours exposure): 3.75E−05

COc1nccc(-c2c3cccnc3n3c(N)nccc23)n1.Cl [Compound 81]
TGI IGROV ([1]; SRB assay, 48 hours exposure): 2.70E−06
GI50 ([1]; read-out: GI50 IGROV, SRB assay, 48 hours exposure): 0.21 µM
CC50 ([1]; read-out: LC50 IGROV, SRB assay, 48 hours exposure): 20.5 µM
TGI LN-caP ([2]; SRB assay, 48 hours exposure): 2.61E−07
GI50 [2, 22]: 0.158 µM
CC50 [2, 23]: 2.77 µM
CC50 at 48 h [3]: 0.858 µM
TGI H-MEC-1 ([4]; SRB assay, 48 hours exposure): 2.62E−07
GI50 ([4]; read-out: GI50 H-MEC-1, SRB assay, 48 hours exposure): 0.171 µM
CC50 ([5]; Homo sapiens, 48 h): ≥ 30.4 µM
TGI IGROV-ET ([5]; SRB assay, 48 hours exposure): 2.28E−07
GI50 [5, 24]: 0.0855 µM
GI50 [6]: 1.3 µM
CC50 [6]: ≥ 30.4 µM
TGI HT-29 [6]: 3.04E−05
GI50 ([7]; Homo sapiens, DU-145, 48 h): 0.928 µM
TGI DU-145 ([7]; SRB assay, 48 hours exposure): 2.40E−06
CC50 [7, 25]: > 30.4 µM
TGI K-562 ([8]; SRB assay, 48 hours exposure): 3.29E−07
GI50 [8, 26]: 0.0791 µM
CC50 [8, 27]: 0.523 µM
GI50 [9]: 0.224 µM
CC50 [9]: ≥ 30.4 µM
TGI LOVO [9]: 1.77E−06
GI50 [10]: 0.706 µM
CC50 [10]: ≥ 30.4 µM
TGI LOVO-DOX [10]: 3.04E−06
GI50 [11]: 1 µM
CC50 [11]: ≥ 30.4 µM
TGI PANC-1 [11]: 2.86E−06
GI50 [12]: 0.313 µM
CC50 [12]: 1.74 µM
TGI MEL-28 [12]: 7.36E−07
GI50 ([13]; Homo sapiens, SK-BR-3, 48 h): 0.855 µM
TGI SK-BR-3 ([13]; SRB assay, 48 hours exposure): 2.26E−06
CC50 ([13]; read-out: LC50 SK-BR-3, SRB assay, 48 hours exposure): 9.49 µM
CC50 ([14]; Homo sapiens, SK-OV-3, 48 h): 34.5 µM
TGI SKOV-3 ([14]; SRB assay, 48 hours exposure): 8.52E−06
GI50 [14, 28]: 0.797 µM
TGI A-549 ([15]; SRB assay, 48 hours exposure): 3.04E−05
GI50 ([15]; read-out: GI50 A-549, SRB assay, 48 hours exposure): ≥ 30.4 µM
CC50 ([15]; read-out: LC50 A-549, SRB assay, 48 hours exposure): ≥ 30.4 µM

CCOc1nccc(-c2c3cccnc3n3c(N)nccc23)n1.Cl [Compound 82]
GI50 [1, 16]: 0.971 µM
CC50 [1, 17]: 29.2 µM
TGI IGROV ([1]; SRB assay, 48 hours exposure): 1.76E−06
TGI LN-caP ([2]; SRB assay, 48 hours exposure): 1.57E−06
GI50 [2, 22]: 0.887 µM
CC50 [2, 23]: 2.28 µM
CC50 at 48 h [3]: 1.55 µM
GI50 [4, 18]: 0.341 µM
TGI H-MEC-1 ([4]; SRB assay, 48 hours exposure): 7.29E−07
CC50 ([5]; Homo sapiens, 48 h): 29.2 µM
TGI IGROV-ET ([5]; SRB assay, 48 hours exposure): 2.32E−07
GI50 [5, 24]: 0.089 µM
GI50 [6]: 0.712 µM
TGI HT-29 [6]: 2.92E−06
GI50 ([7]; Homo sapiens, DU-145, 48 h): 0.715 µM
TGI DU-145 ([7]; SRB assay, 48 hours exposure): 1.51E−06
CC50 [7, 25]: 2.92 µM
TGI K-562 ([8]; SRB assay, 48 hours exposure): 7.32E−07
GI50 [8, 26]: 0.531 µM
CC50 [8, 27]: 1.01 µM
GI50 [9]: 0.665 µM
CC50 [9]: 29.2 µM
TGI LOVO [9]: 2.15E−06
GI50 [10]: 0.7 µM
CC50 [10]: 12.1 µM
TGI LOVO-DOX [10]: 2.72E−06
GI50 [11]: 1.03 µM
CC50 [11]: 29.2 µM
TGI PANC-1 [11]: 6.77E−06
GI50 [12]: 0.365 µM
CC50 [12]: 1.73 µM
TGI MEL-28 [12]: 7.93E−07
GI50 ([13]; Homo sapiens, SK-BR-3, 48 h): 0.56 µM
CC50 [13, 19]: 2.26 µM
TGI SK-BR-3 ([13]; SRB assay, 48 hours exposure): 1.12E−06
TGI SKOV-3 ([14]; SRB assay, 48 hours exposure): 2.91E−06
GI50 [14, 28]: 0.992 µM
GI50 [15, 20]: 29.2 µM
CC50 [15, 21]: 29.2 µM
TGI A-549 ([15]; SRB assay, 48 hours exposure): 2.92E−05
